For orientation: IC50 means the midpoint of a concentration-inhibition curve.

The subject of test [1] is ATXN3 pre-mRNA (transcripts containing exon 4). Description: ATXN3 quantitative splicing assay (qPCR, E4E5 transcripts containing exon 4). In kind it is cell-based. The settings on record: Homo sapiens; SK-N-MC cells, 24 h treatment, qPCR E4E5 primers/probe. Here is the method:
Human neuroblastoma SK-N-MC cells were plated in 384-well plates at 20,000 cells/well. Twenty-four hours after plating, cells were treated with compounds for 24 h at appropriate concentrations ranging from 30 μM to 0.6 nM (0.3% DMSO). Treated cells were lysed in 15 μL of lysis buffer, and cDNA was synthesized using the Fast Advanced Cells-to-Ct kit. Two μL of each cDNA was used in qPCR reactions to confirm the exon 4 skipped transcripts of ATXN3. A second set of primers/probe E4E5 was used to detect the transcripts containing exon 4. The third set of primers/probe E8E9 was used to detect total gene level of ATXN3. The qPCR reactions were prepared in 384-well plates in 10 μL volume, using TaqMan™ Fast Advanced Master Mix with primers and probes shown in the table below. Reactions were run in a Quant Studio 6 qPCR instrument with default settings.
The primers and probes are listed below in Table 5.
In general terms: Quantitative PCR measures a nucleic acid by following its amplification.

The next test relates to total ATXN3 protein. The test is described as follows: ATXN3 total protein assay (MSD). In kind it is cell-based, human. Conditions: SK-N-MC cells, 48 h incubation. Here is the method:
Human neuroblastoma SK-N-MC cells were seeded at 10,000 cells/well in 384 well plates one day prior to compound treatment. The concentrations of compounds were tested at appropriate doses ranging from 30 μM to 0.6 nM. After incubation for 48 hours, the cells were lysed with 25 μL of lysis buffer containing protease inhibitors, and total ATXN3 protein levels were assessed by Mesoscale Discovery (MSD) assay developed with one pair of anti-ATXN3 antibodies. The capture and detect antibodies were raised in mouse and rabbit respectively. Anti-rabbit MSD-ST antibody was used for secondary antibody.
ATXN3 recombinant protein was used for standards. The readouts were captured with 35 μL of MSD read buffer and multi-array 384-well high binding plates.

On to `C[C@H](N)Cc1sc2c(NCc3cccs3)snc2c1-n1cccn1` [Compound 3, 7-[(S)-2-aminopropyl]-8-(1-pyrazolyl)-4-thenylamino-3,6-dithia-2-azabicyclo[3.3.0]octa-1,4,7-triene], for which the IC50 (in test [1]; with total ATXN3 protein) was 10000 to 40000 nM in each case.
`C#Cc1c(C[C@H](C)N)sc2c(NCc3cccs3)snc12` [Compound 4, 5-[(2S)-2-aminopropyl]-6-ethynyl-N-(thiophen-2-ylmethyl)thieno[3,2-c][1,2]thiazol-3-amine]: the IC50 (in test [1]; in the test with total ATXN3 protein) was 101 to 500 nM throughout.
Turning to `C[C@H](N)Cc1sc2c(NCc3cccs3)snc2c1-c1ccncc1` [Compound 5, 7-[(S)-2-aminopropyl]-8-(4-pyridyl)-4-thenylamino-3,6-dithia-2-azabicyclo[3.3.0]octa-1,4,7-triene], the IC50 (in test [1]; with total ATXN3 protein) was 10000 to 40000 nM throughout.
With `C[C@H](N)Cc1sc2c(NCc3cccs3)snc2c1-c1cccnc1` [Compound 6, 7-[(S)-2-aminopropyl]-8-(3-pyridyl)-4-thenylamino-3,6-dithia-2-azabicyclo[3.3.0]octa-1,4,7-triene], the IC50 (in test [1]; in the test on total ATXN3 protein) was 10000 to 40000 nM in each case.
For `C[C@H](N)Cc1sc2c(NCc3cccs3)snc2c1-c1ccccn1` [Compound 7, 5-[(2S)-2-aminopropyl]-6-(pyridin-2-yl)-N-(thiophen-2-ylmethyl)thieno[3,2-c][1,2]thiazol-3-amine], the half-maximal inhibitory concentration (IC50) (in test [1]; in the test on total ATXN3 protein) was 10000 to 40000 nM throughout.
Turning to `C[C@H](N)Cc1sc2c(NCc3cccs3)snc2c1-n1ccnc1` [Compound 8, 5-[(2S)-2-aminopropyl]-6-(imidazol-1-yl)-N-(thiophen-2-ylmethyl)thieno[3,2-c][1,2]thiazol-3-amine], the IC50 (in test [1]; in the test with total ATXN3 protein) was 10000 to 40000 nM each time.
`C[C@H](N)Cc1sc2c(NCc3ccco3)snc2c1-c1ccncc1` [Compound 10, 7-[(S)-2-aminopropyl]-4-(furfurylamino)-8-(4-pyridyl)-3,6-dithia-2-azabicyclo[3.3.0]octa-1,4,7-triene]: the IC50 (in test [1]; in the test on total ATXN3 protein) was 10000 to 40000 nM in each case.
In the case of `C#Cc1c(C[C@H](C)N)sc2c(NCc3ccco3)snc12` [Compound 11, 7-[(S)-2-aminopropyl]-8-ethynyl-4-(furfurylamino)-3,6-dithia-2-azabicyclo[3.3.0]octa-1,4,7-triene], the IC50 (in test [1]; in the test with total ATXN3 protein) was 0.01 to 100 nM each time.
In the case of `C[C@H](N)Cc1sc2c(NCc3ccco3)snc2c1-c1cccnc1` [Compound 12, 7-[(S)-2-aminopropyl]-4-(furfurylamino)-8-(3-pyridyl)-3,6-dithia-2-azabicyclo[3.3.0]octa-1,4,7-triene], the IC50 (in test [1]; with total ATXN3 protein) was 10000 to 40000 nM each time.
Take `C#Cc1c(C[C@@H](N)CO)sc2c(NCc3ccco3)snc12` [Compound 13, (R)-2-amino-3-{8-ethynyl-4-(furfurylamino)-3,6-dithia-2-azabicyclo[3.3.0]octa-1,4,7-trien-7-yl}-1-propanol]: the 50% inhibitory concentration (IC50) (in test [1]; in the test on total ATXN3 protein) was 0.01 to 100 nM each time.
For the compound `C#Cc1c(C[C@@H](N)COC)sc2c(NCc3ccco3)snc12` [Compound 14, 7-[(R)-2-amino-3-methoxypropyl]-8-ethynyl-4-(furfurylamino)-3,6-dithia-2-azabicyclo[3.3.0]octa-1,4,7-triene], the IC50 (in test [1]; with total ATXN3 protein) was 501 to 5000 nM in each case.
In the case of `C#Cc1c(C[C@@H](N)COC)sc2c(NCc3cccs3)snc12` [Compound 15, 7-[(R)-2-amino-3-methoxypropyl]-8-ethynyl-4-thenylamino-3,6-dithia-2-azabicyclo[3.3.0]octa-1,4,7-triene], the IC50 (in test [1]; in the test with total ATXN3 protein) was 501 to 5000 nM each time.
As for `C#Cc1c(C[C@@H](N)CO)sc2c(NCc3cccs3)snc12` [Compound 16, (R)-2-amino-3-(8-ethynyl-4-thenylamino-3,6-dithia-2-azabicyclo[3.3.0]octa-1,4,7-trien-7-yl)-1-propanol], the half-inhibitory concentration (IC50) (in test [1]; in the test with total ATXN3 protein) was 0.01 to 100 nM each time.
In the case of `C#Cc1c(C[C@@H](N)CF)sc2c(NCc3cccs3)snc12` [Compound 17, 7-[(R)-2-amino-3-fluoropropyl]-8-ethynyl-4-thenylamino-3,6-dithia-2-azabicyclo[3.3.0]octa-1,4,7-triene], the IC50 was in the range of 101 to 500 nM in test [1] and 501 to 5000 nM with total ATXN3 protein.
As to `C#Cc1c(C[C@@H](N)[C@H](C)F)sc2c(NCc3cccs3)snc12` [Compound 19, 5-[(2R,3S)-2-amino-3-fluorobutyl]-6-ethynyl-N-(thiophen-2-ylmethyl)thieno[3,2-c][1,2]thiazol-3-amine], the 50% inhibitory concentration (IC50) (in test [1]; with total ATXN3 protein) was 101 to 500 nM each time.
Consider `C#Cc1c(C[C@@H](N)[C@H](C)F)sc2c(NCc3nccs3)snc12` [Compound 22, 7-[(2R,3S)-2-amino-3-fluorobutyl]-8-ethynyl-4-{[(1,3-thiazol-2-yl)methyl]amino}-3,6-dithia-2-azabicyclo[3.3.0]octa-1,4,7-triene], for which the IC50 is 101 to 500 nM in test [1] and 0.01 to 100 nM in the test on total ATXN3 protein.
As to `C#Cc1c(C[C@@H](N)CF)sc2c(NCc3ccco3)snc12` [Compound 23, 7-[(R)-2-amino-3-fluoropropyl]-8-ethynyl-4-(furfurylamino)-3,6-dithia-2-azabicyclo[3.3.0]octa-1,4,7-triene], the IC50 is 101 to 500 nM in test [1] and 501 to 5000 nM in the test on total ATXN3 protein.
In the same order, the values of `C#Cc1c(C[C@@H](N)[C@@H](C)F)sc2c(NCc3ccco3)snc12` [Compound 24, 7-[(2R,3R)-2-amino-3-fluorobutyl]-8-ethynyl-4-(furfurylamino)-3,6-dithia-2-azabicyclo[3.3.0]octa-1,4,7-triene] are 101 to 500 nM and 501 to 5000 nM.
Taken in the same sequence, the figures for `C#Cc1c(C[C@@H](N)[C@H](C)F)sc2c(NCc3ccco3)snc12` [Compound 25, 7-[(2R,3S)-2-amino-3-fluorobutyl]-8-ethynyl-4-(furfurylamino)-3,6-dithia-2-azabicyclo[3.3.0]octa-1,4,7-triene] were 101 to 500 nM and 101 to 500 nM.
Taken in the same sequence, the figures for `C#Cc1c(C[C@@H](N)COC)sc2c(NCc3ccccc3)snc12` [Compound 30, 7-[(R)-2-amino-3-methoxypropyl]-4-benzylamino-8-ethynyl-3,6-dithia-2-azabicyclo[3.3.0]octa-1,4,7-triene] were 10000 to 40000 nM and 10000 to 40000 nM.
In the case of `C#Cc1c(C[C@@H](N)CC2CC2)sc2c(NCc3ccco3)snc12` [Compound 32, 7-[(S)-2-amino-3-cyclopropylpropyl]-8-ethynyl-4-(furfurylamino)-3,6-dithia-2-azabicyclo[3.3.0]octa-1,4,7-triene], the IC50 (in test [1]; in the test with total ATXN3 protein) was 101 to 500 nM throughout.
Turning to `C#Cc1c(C[C@@H](N)CC2CC2)sc2c(NCc3cccs3)snc12` [Compound 33, 7-[(S)-2-amino-3-cyclopropylpropyl]-8-ethynyl-4-thenylamino-3,6-dithia-2-azabicyclo[3.3.0]octa-1,4,7-triene], the IC50 (in test [1]; in the test with total ATXN3 protein) was 501 to 5000 nM each time.
`C#Cc1c(C[C@@H](N)COC2CC2)sc2c(NCc3cccs3)snc12` [Compound 34, 7-[(R)-2-amino-3-cyclopropoxypropyl]-8-ethynyl-4-thenylamino-3,6-dithia-2-azabicyclo[3.3.0]octa-1,4,7-triene]: the IC50 (in test [1]; in the test on total ATXN3 protein) was 501 to 5000 nM in each case.
As for `C#Cc1c(C(F)(F)[C@H](C)N)sc2c(NCc3cccs3)snc12` [Compound 35, 7-[(S)-2-amino-1,1-difluoropropyl]-8-ethynyl-4-thenylamino-3,6-dithia-2-azabicyclo[3.3.0]octa-1,4,7-triene], the 50% inhibitory concentration (IC50) (in test [1]; in the test on total ATXN3 protein) was 501 to 5000 nM throughout.
Turning to `C#Cc1c(C[C@@H](N)C(F)F)sc2c(NCc3ccco3)snc12` [Compound 37, 7-[(R)-2-amino-3,3-difluoropropyl]-8-ethynyl-4-(furfurylamino)-3,6-dithia-2-azabicyclo[3.3.0]octa-1,4,7-triene], the IC50 (in test [1]; in the test on total ATXN3 protein) was 501 to 5000 nM in each case.
`C[C@H](N)Cc1sc2c(NCc3cccs3)snc2c1-c1ncco1` [Compound 40, 7-[(S)-2-aminopropyl]-8-(1,3-oxazol-2-yl)-4-thenylamino-3,6-dithia-2-azabicyclo[3.3.0]octa-1,4,7-triene]: the IC50 (in test [1]; in the test with total ATXN3 protein) was 501 to 5000 nM throughout.
With `C[C@H](F)[C@H](N)Cc1sc2c(NCc3cccs3)snc2c1-c1ncco1` [Compound 41, 7-[(2R,3S)-2-amino-3-fluorobutyl]-8-(1,3-oxazol-2-yl)-4-thenylamino-3,6-dithia-2-azabicyclo[3.3.0]octa-1,4,7-triene], the half-inhibitory concentration (IC50) (in test [1]; with total ATXN3 protein) was 501 to 5000 nM each time.
